Experimental data published in patent publication US5183821A, “Method for treating leukemias using N-(2-dimethylaminoethyl)-3-amino-1,8-naphthalimide for treating leukemias and solid tumors” (priority 1991, dated 1993).
“And” between values parts separate entries of the source, which are not always exact repeats. Equal entries are not always repeated. “Also recorded” adds a separate entry of the source.

Assays:
B16 Melanocarcinoma [1] = experiment: Experiment 17: B16 i.p., saline with Tween-80, female; type: in vivo, Mouse B6C3F1
Source text: (§1) Tumor: B16 Melanocarcinoma
(§2) Inoculum Site: Intraperitoneal
(§3) Tissue: Homogenate (or brei), tumor
(§4) Vehicle: Saline with Tween-80
(§5) Treatment schedule (relative to tumor inoculation day): daily on days 1-9
(§6) Day of evaluation (relative to tumor inoculation day): 60
(§7) Parameter: Median survival time (MST) in days
(§8) NCI minimal activity criteria: Percent T/C≥125
(§9) Percent T/C: Ratio of test (T) evaluation to control (C) evaluation expressed as a percentage

B16 Melanocarcinoma [2] = experiment: Experiment 19: B16 i.p., acid diluted with saline, female; type: in vivo, Mouse B6 D2 F1
Source text: as §1, §2, §3
(§10) Vehicle: Acid diluted with saline
Treatment schedule: (relative to tumor inoculation day): daily on days 1-9
as §6, §7, §8, §9

M5076 ovarian carcinoma = experiment: Experiment 21: M5076 i.p., 10^6 cells, acid diluted with saline, female; type: in vivo, Mouse
Source text: Tumor: M5076 ovarian carcinoma
as §2, §10
Treatment schedule (relative to tumor inoculation day): every 4 days for 4 times
as §6
Parameter: Mean survival time (MST) in days
NCI minimal activity criteria: Percent T/C≥125.
Percent T/C: Ratio of test (T) evaluation to control (C) evaluation expressed as a percentage.

canine whole blood = experiment: Hemolytic potential testing, canine whole blood; details: 50 mg/ml
Experimental: Therefore, a concentration of 12.5 mg/ml was used in the dog studies.

B16 Melanocarcinoma [3] = experiment: Experiment 20: B16 i.p., acid diluted with saline, female; type: in vivo, Mouse B6 C3 F1
Source text: as §1, §2, §3, §10, §5, §6, §7, §8, §9

beagle dogs = experiment: Five daily dose dog toxicity study; type: in vivo
Experimental: Preclinical toxicity studies of BIDA were completed in CD2F1 Mice, Fischer 344 rats and beagle dogs (4). The animals were injected IV with a single bolus or daily for five days.
A preclinical toxicology study of benzisoquinolinedione (NSC-308847) was done at Springborn Institute for Bioresearch, Inc. using CD2 F1 mice, Fischer 344 rats and beagle dogs. Animals were injected intravenously on a single dose (X1) or five daily dose (X5) regimen. Bulk drug was titrated with 0.5N HCl to form a salt solution of benzisoquinolinedione at a pH of 5.0-6.5. Sterile 0.9% saline was used for diluting the dosing solutions and was used for the vehicle control animals.
The following summarizes the major organ toxicities resulting from IV administration of benzisoquinolinedione to dogs.

L-1210 Lymphoid leukemia = experiment: Experiment 4: L-1210 s.c., 10^5 cells, acid diluted with saline, male; type: in vivo, Mouse CD2 F1 (CDF1)
Source text: Host: Mouse CD2 F1 (CDF1)
Tumor: L-1210 Lymphoid leukemia
(§11) Inoculum Site: Subcutaneous
Vehicle: acid diluted with saline
as §5
Day of evaluation (relative to tumor inoculation day): 30
as §7, §8, §9

Colon 38 = experiment: Experiment 12 (second): Colon 38 s.c., saline with Tween-80, female; type: in vivo, Mouse B6 D2 F1 (BDF1)
Source text: Host: Mouse B6 D2 F1 (BDF1)
as §11, §4
Treatment schedule (relative to tumor inoculation day): days 2 and 9
Day of evaluation (relative to tumor inoculation day): 20
Parameter: Median tumor weight (MTW) estimated from tumor diameter
NCI minimal activity criteria: Percent T/C≤42
as §9

B16 Melanocarcinoma [4] = experiment: NCI screen, B16 Melanocarcinoma, intraperitoneal (summary); type: in vivo, Mouse; details: for Antitumor activity in words: B16
Source text: The activity of the compound has been evaluated by experiments carried out under the auspices of the Division of Cancer Treatment, National Cancer Institute, employing techniques considered to be reliable indicators of chemotherapeutic utility in the treatment of forms of cancer in human patients. The details of the methodology employed in the reported experiments may be determined with reference to established NCI screening methods.
In the experiments conducted by the NCI, evaluation of activity is made on the basis of appropriate parameters, such as median survival time (MST) or change in average tumor diameter (CATD)in ocular micrometer units (OMU).

CN(C)CCN1C(=O)c2cccc3cc(N)cc(c23)C1=O [Example 9, 1H-Benz[de]isoquinoline-1,3(2H)-dione, 5-amino-2-[2-(dimethylamino)ethyl]]
Median survival time (MST) (B16 Melanocarcinoma [1]; 1.00 mg/kg i.p.): 18.8 days
Percent T/C (B16 Melanocarcinoma [1]; 1.00 mg/kg i.p.): 102%
Median survival time (MST) (B16 Melanocarcinoma [1]; 2.00 mg/kg i.p.): 17.0 days
Percent T/C (B16 Melanocarcinoma [1]; 2.00 mg/kg i.p.): 102%
Median survival time (MST) (B16 Melanocarcinoma [1]; 4.00 mg/kg i.p.): 20.0 days
Percent T/C (B16 Melanocarcinoma [1]; 4.00 mg/kg i.p.): 120%
Median survival time (MST) (B16 Melanocarcinoma [1]; 8.00 mg/kg i.p.): 19.4 days
Percent T/C (B16 Melanocarcinoma [1]; 8.00 mg/kg i.p.): 116%
Median survival time (MST) (B16 Melanocarcinoma [1]; 16.00 mg/kg i.p.): 22.9 days
Percent T/C (B16 Melanocarcinoma [1]; 16.00 mg/kg i.p.): 137%
Median survival time (MST) (B16 Melanocarcinoma [1]; 32.00 mg/kg i.p.): 7.0 days
Median survival time (MST) (B16 Melanocarcinoma [2]; 1.00 mg/kg i.p.): 19.8 days
Percent T/C (B16 Melanocarcinoma [2]; 1.00 mg/kg i.p.): 99%
Median survival time (MST) (B16 Melanocarcinoma [2]; 2.00 mg/kg i.p.): 21.9 days
Percent T/C (B16 Melanocarcinoma [2]; 2.00 mg/kg i.p.): 110%
Median survival time (MST) (B16 Melanocarcinoma [2]; 4.00 mg/kg i.p.): 22.8 days
Percent T/C (B16 Melanocarcinoma [2]; 4.00 mg/kg i.p.): 114%
Median survival time (MST) (B16 Melanocarcinoma [2]; 8.00 mg/kg i.p.): 24.3 days
Percent T/C (B16 Melanocarcinoma [2]; 8.00 mg/kg i.p.): 122%
Median survival time (MST) (B16 Melanocarcinoma [2]; 16.00 mg/kg i.p.): 31.0 days
Percent T/C (B16 Melanocarcinoma [2]; 16.00 mg/kg i.p.): 155%
Median survival time (MST) (B16 Melanocarcinoma [2]; 32.00 mg/kg i.p.): 6.8 days
Mean survival time (MST) (M5076 ovarian carcinoma; 4.50 mg/kg i.p.): 29,0 days
Percent T/C (M5076 ovarian carcinoma; 4.50 mg/kg i.p.): 109%
Mean survival time (MST) (M5076 ovarian carcinoma; 9,00 mg/kg i.p.): 28,7 days
Percent T/C (M5076 ovarian carcinoma; 9,00 mg/kg i.p.): 107%
Mean survival time (MST) (M5076 ovarian carcinoma; 18,00 mg/kg i.p.): 30,8 days
Percent T/C (M5076 ovarian carcinoma; 18,00 mg/kg i.p.): 115%
Mean survival time (MST) (M5076 ovarian carcinoma; 36,00 mg/kg i.p.): 37,0 days
Percent T/C (M5076 ovarian carcinoma; 36,00 mg/kg i.p.): 139%
Mean survival time (MST) (M5076 ovarian carcinoma; 72,00 mg/kg i.p.): Toxic.
hemolysis (canine whole blood; 1:1 drug to blood): hemolysis
hemolysis (canine whole blood; 1:2): Slight hemolysis
hemolysis (canine whole blood; 1:4): none
Median survival time (MST) (B16 Melanocarcinoma [3]; 0.00 mg/kg [sic] i.p.): 18.3 days
Percent T/C (B16 Melanocarcinoma [3]; 0.00 mg/kg [sic] i.p.): 97%
Median survival time (MST) (B16 Melanocarcinoma [3]; 2.00 mg/kg i.p.): 18.3 days
Percent T/C (B16 Melanocarcinoma [3]; 2.00 mg/kg i.p.): 97%
Median survival time (MST) (B16 Melanocarcinoma [3]; 4.00 mg/kg i.p.): 20.0 days
Percent T/C (B16 Melanocarcinoma [3]; 4.00 mg/kg i.p.): 106%
Median survival time (MST) (B16 Melanocarcinoma [3]; 8.00 mg/kg i.p.): 20.9 days
Percent T/C (B16 Melanocarcinoma [3]; 8.00 mg/kg i.p.): 111%
Median survival time (MST) (B16 Melanocarcinoma [3]; 16.00 mg/kg i.p.): 20.8 days
Percent T/C (B16 Melanocarcinoma [3]; 16.00 mg/kg i.p.): 110%
Median survival time (MST) (B16 Melanocarcinoma [3]; 32.00 mg/kg i.p.): 6.7 days
drug-related toxicities (beagle dogs; 0.38 mg/kg/day): No drug-related toxicities were found
Mortality / lethality (beagle dogs; 0.38 mg/kg/day (1/10MELD10)): 0/4
drug-related toxicities (beagle dogs; 3.8 mg/kg/day): No drug-related toxicities were found
Mortality / lethality (beagle dogs; 3.8 mg/kg/day (MELD10)): 0/4
gross or microscopic lesions (beagle dogs; 11.4 mg/kg/day): No drug-related gross or microscopic lesions were found
Mortality / lethality (beagle dogs; 11.4 mg/kg/day (3XMELD10), listed as BIDA): Neither the single injection of 2×MELD10 or the daily×5 injection of the 3×MELD10 caused lethality
Mortality / lethality (beagle dogs; 11.4 mg/kg/day (3XMELD10), listed as benzisoquinolinedione): no deaths and 0/4
leukopenia (leukocyte count) (beagle dogs; 11.4 mg/kg/day, all four dogs): 3.5-6.6 ×10^3 /cmm
Nervous system signs (beagle dogs; 11.4 mg/kg/day, days 2 and/or 3): Three of four dogs showed signs indicating nervous system toxicity
BUN (beagle dogs; 11.4 mg/kg/day, one dog, day 8): 27 mg/dL
decrease in hemoglobin, hematocrit and red blood cells below pretest values (beagle dogs; 11.4 mg/kg/day, two dogs, day 4 or 8): 15-24%
toxicity summary, dogs (beagle dogs; five daily doses i.v., listed as benzisoquinolinedione): reversible toxicity to the hematopoietic system, kidney and liver; also recorded: Signs indicative of pain and/or neurotoxicity; also recorded: No drug-related gross or microscopic lesions
Median survival time (MST) (L-1210 Lymphoid leukemia; 0.00 mg/kg [sic] i.p.): 8.9 days
Percent T/C (L-1210 Lymphoid leukemia; 0.00 mg/kg [sic] i.p.): 101%
Median survival time (MST) (L-1210 Lymphoid leukemia; 5.00 mg/kg i.p.): 10.4 days
Percent T/C (L-1210 Lymphoid leukemia; 5.00 mg/kg i.p.): 118%
Median survival time (MST) (L-1210 Lymphoid leukemia; 7.00 mg/kg i.p.): 10.7 days
Percent T/C (L-1210 Lymphoid leukemia; 7.00 mg/kg i.p.): 121%
Median survival time (MST) (L-1210 Lymphoid leukemia; 10.00 mg/kg i.p.): 12.0 days
Percent T/C (L-1210 Lymphoid leukemia; 10.00 mg/kg i.p.): 136%
Median survival time (MST) (L-1210 Lymphoid leukemia; 16.00 mg/kg i.p.): 15.3 days
Percent T/C (L-1210 Lymphoid leukemia; 16.00 mg/kg i.p.): 173%
Median survival time (MST) (L-1210 Lymphoid leukemia; 24.00 mg/kg i.p.): 11.0 days
Percent T/C (L-1210 Lymphoid leukemia; 24.00 mg/kg i.p.): 125%
Median tumor weight (MTW) (Colon 38; 8.00 mg/kg i.p.): 1100
Percent T/C (Colon 38; 8.00 mg/kg i.p.): 88%
Median tumor weight (MTW) (Colon 38; 16.00 mg/kg i.p.): 1256
Percent T/C (Colon 38; 16.00 mg/kg i.p.): 100%
Median tumor weight (MTW) (Colon 38; 32.00 mg/kg i.p.): 1005
Percent T/C (Colon 38; 32.00 mg/kg i.p.): 80%
Median tumor weight (MTW) (Colon 38; 64.00 mg/kg i.p.): 699
Percent T/C (Colon 38; 64.00 mg/kg i.p.): 55%
Median tumor weight (MTW) (Colon 38; 128.00 mg/kg i.p.): Deaths before evaluation
increased life spans (B16 Melanocarcinoma [4]; 16 mg/kg i.p. days 1-9, three experiments): 37-55%
Antitumor activity in words (B16 Melanocarcinoma [4]; listed as BIDA): Activity was seen
Antitumor activity in words (B16 Melanocarcinoma [4]; listed as the compound): at least a reproducible minimal activity; also recorded: active
Table II evaluation (B16 Melanocarcinoma [4]; median survival time, 28 tests, full wrapped cell: Reproducible minimal activity): Reproducible minimal
